Assay [1] has as its system Panc-1 cells. The experiment in a line: Growth and viability of Panc-1 cells (cell proliferation assay). It counts as cell-based, human. The conditions noted are these: concentrations up to 10 μM. The procedure: Cell proliferation is evaluated by measuring the fluorescence intensity of propidium iodide (PI) as described previously by Zhang et al. (Cancer Lett., 142: 129-137, 1999) with minor modifications. Briefly, cells are seeded in 24-well plates at a density of 3×10^4 cells per well. After overnight cultivation, cells are irradiated and cultured for 4 days. PI (30 μM) and digitonin ([…]) are added to each well to label all nuclei of the cells with PI. Fluorescence intensity corresponding to total cells in each well is measured by a multi-well plate-reader, CYTOFLUOR II (PerSeptive Biosystems Inc., Framingham, Mass., USA) with 530-nm excitation and 645-nm emission filters. The cell proliferation rate is calculated as the proportion of fluorescence intensity of each well at the time point indicated in the text to that at the day of irradiation.
(§1) Finally, we test whether a synthetic MMP inhibitor, N-hydroxy-2(R)-[[4 methoxyphenylsulfonyl](3-picolyl)amino]-3-methyl-butaneamide hydrochloride) monohydrate, could prevent the radiation-enhanced invasiveness. N-hydroxy-2(R)-[[4-methoxyphenylsulfonyl](3-picolyl)amino]-3-methyl-butaneamide hydrochloride) monohydrate is added to invasion chambers at final concentrations of 1, 5, and 10 μm just before irradiation.

The test system of assay [2] is Panc-1 cells. The experiment in a line: Matrigel invasion assay after irradiation. Type of assay: cell-based, human. The note with it: Panc-1, irradiation at 5 Gy, inhibitor at 5 and 10 μM added just before irradiation, 24 h. As for the experimental part: The cells are irradiated with doses of 3, 5, or 10 Gy at room temperature using a ^137Cs source (Gamma Cell 40, Atomic Energy of Canada Ltd., Ontario, Canada) delivering 1.0 Gy/min.
Invasion of pancreatic cancer cells is measured by the invasion of cells through Matrigel-coated transwell inserts (Becton Dickinson, Franklin Lakes, N.J., USA) (Sato et al and Maehara et al ibid).
Briefly, transwell inserts with 8 μm pore are coated with Matrigel (40 μg/well, Becton Dickinson, Bedford, Mass., USA). Five hundred μl of cell suspension (1×10^5/ml) are added to the upper chambers. Same media of 750 μl are placed in the lower wells. Thereafter, the cells are irradiated and incubated for 24 h. Cells that have invaded to lower surface of the Matrigel-coated membrane are fixed with 70% ethanol, stained with H&E, and counted in five random fields under a light microscope.
as §1

Assay [3] deals with T1, MMP-2 (Homo sapiens, UniProt P08253).
T1 construct: The conditioned medium either from non-irradiated or irradiated Panc-1 cells is concentrated to 10-fold; endogenous in cells; host or cells: Panc-1 cells (conditioned medium)
T1 sequence (P08253 30-660): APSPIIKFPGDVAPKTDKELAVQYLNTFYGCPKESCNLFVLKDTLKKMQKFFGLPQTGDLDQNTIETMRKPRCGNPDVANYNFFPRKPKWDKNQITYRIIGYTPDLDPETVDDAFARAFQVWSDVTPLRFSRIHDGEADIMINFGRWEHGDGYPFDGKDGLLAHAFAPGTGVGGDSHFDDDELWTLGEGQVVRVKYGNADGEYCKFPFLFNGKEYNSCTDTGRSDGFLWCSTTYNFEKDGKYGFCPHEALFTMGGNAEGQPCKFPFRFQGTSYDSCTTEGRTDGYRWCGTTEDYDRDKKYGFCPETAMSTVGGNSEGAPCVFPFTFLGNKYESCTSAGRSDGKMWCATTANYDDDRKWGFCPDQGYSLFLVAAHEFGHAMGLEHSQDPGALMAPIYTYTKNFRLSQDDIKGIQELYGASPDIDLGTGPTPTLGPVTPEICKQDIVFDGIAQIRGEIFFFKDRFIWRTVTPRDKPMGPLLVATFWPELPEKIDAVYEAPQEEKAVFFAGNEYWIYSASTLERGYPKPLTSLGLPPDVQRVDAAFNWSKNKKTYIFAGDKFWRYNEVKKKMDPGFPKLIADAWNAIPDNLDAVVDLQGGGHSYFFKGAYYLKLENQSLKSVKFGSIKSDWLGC
Put plainly: Gelatin zymography of conditioned medium from Panc-1 cells. Type of assay: cell-based. The conditions noted are these: 5 μM, Panc-1 conditioned medium. The procedure:
(§2) The conditioned medium either from non-irradiated or irradiated Panc-1 cells is concentrated to 10-fold with Centricon-10 (Amico, Beverly, Mass., USA). Samples are added to each lane and subjected to 10% SDS-polyacrylamide gel electrophoresis, using 10% polyacrylamide gel containing 1 mg/ml gelatin. After electrophoresis, the gel is washed in 2.5% Triton X-100, and incubated in 50 mM Tris-HCl buffer (pH8.0) containing 0.5 mM CaCl2 and 1 mM ZnCl2 for 20 hr at 37° C. The gel is stained with 1% Coomassie Brilliant Blue R-250 and destained with destaining buffer (5% acetic acid and 10% methanol).
(§3) To determine the role of gelatinases in the radiation-induced changes in invasive potential, we examine MMPs activity in Panc-1 cells before and after irradiation. Cells are incubated 24 h after irradiation and the conditioned medium is subjected to the gelatin zymography. Untreated Panc-1 cells secrete both latent and active forms of MMP-2 (72 kDa and 62 kDa gelatinases).
as §1

The target of assay [4] is T2, MMP-2 (Homo sapiens, UniProt P08253).
T2 construct: The conditioned medium either from non-irradiated or irradiated Panc-1 cells is concentrated to 10-fold; endogenous in cells; host or cells: Panc-1 cells (conditioned medium)
T2 sequence (P08253 110-660): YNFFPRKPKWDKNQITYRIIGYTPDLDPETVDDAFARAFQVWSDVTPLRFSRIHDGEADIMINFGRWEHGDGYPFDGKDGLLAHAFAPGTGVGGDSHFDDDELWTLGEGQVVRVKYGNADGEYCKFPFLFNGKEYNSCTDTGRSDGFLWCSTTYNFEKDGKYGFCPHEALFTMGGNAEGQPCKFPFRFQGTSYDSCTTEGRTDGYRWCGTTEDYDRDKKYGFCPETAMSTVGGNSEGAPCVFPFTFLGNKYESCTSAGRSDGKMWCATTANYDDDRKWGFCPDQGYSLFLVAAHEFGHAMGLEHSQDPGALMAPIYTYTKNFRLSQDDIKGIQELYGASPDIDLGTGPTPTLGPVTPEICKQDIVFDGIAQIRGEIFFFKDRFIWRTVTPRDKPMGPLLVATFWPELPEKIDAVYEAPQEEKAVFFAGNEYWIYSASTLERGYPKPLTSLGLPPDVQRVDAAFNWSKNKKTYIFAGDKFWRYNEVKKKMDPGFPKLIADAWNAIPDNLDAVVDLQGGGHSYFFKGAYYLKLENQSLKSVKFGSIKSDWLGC
The assay is described as above. Type of assay: cell-based. The conditions noted are these: 5 μM, Panc-1 conditioned medium. The procedure: as §2, §3, §1
The source holds these as a separate data set.

Consider `COc1ccc(S(=O)(=O)N(Cc2cccnc2)[C@@H](C(=O)NO)C(C)C)cc1.Cl.O` [N-hydroxy-2(R)-[[4-methoxyphenylsulfonyl](3-picolyl)amino]-3-methyl-butaneamide hydrochloride)monohydrate], for which the “growth and viability of Panc-1 cells” value in assay [1] is “does not affect the growth and viability”. Besides, the “increase in invaded cells after irradiation (radiation-enhanced invasion)” value in assay [2] was “significantly block the increase in invaded cells after irradiation”. Besides, the “enzymatic activity of latent type MMP-2 (gelatin zymography)” value in assay [3] is listed as “without affecting”. The “active type MMP-2 (gelatin zymography)” value in assay [4] was “markedly decreases”.

Values taken from patent US20050232915A1, “Matrix metalloproteinase inhibitors in combination with hypothermia and/or radiotherapy for the treatment of cancer” (priority 2002, published 2005).
